In US5648378A, “2-iminochromene derivatives as inhibitors of protein tyrosine kinase” (Research Corporation Technologies, Inc., priority 1995, dated 1997):
Values after ≈ are worked out from the molar mass of the structure shown. “Also recorded” adds a separate entry of the source.

Key:
p60^c-src = target: T1, p60^c-src (Homo sapiens, UniProt P12931); test: kinase assay, purified p60c-src, poly [Glu,Tyr](4:1) substrate; assay type: biochemical; settings: for IC50, p60^c-src: purified kinase, poly [Glu,Tyr](4:1) substrate; for potency relative to the hydroxylated parent compound (in words): hydroxymethyl versus hydroxy N-phenyl analogue
T1 construct: purchased Upstate Biotechnology Inc
Experimental: (§1) Purified p60^c-scr and Src-family kinases p56^lck, p56^lyn, and p55^fyn were obtained from Upstate Biotechnology Inc. Kinase assays were performed as described by A. Gezit, J. Med.

A-1 cells = test: cell growth inhibition, A-1 acute lymphocytic leukemia; assay type: cell-based; settings: Homo sapiens, 72 h; 3 days, Trypan Blue viable cell count
Experimental: (§2) The source of the cancer cell lines were: HL-60, HT-29, and BT-20, from American Type Culture Collection, Rockville, Maryland; A-1 from Dr. M. H. Freedman, MG-63, from Dr. M. Hurley, and human fibroblast from Dr. R. Zeff. Cells were grown in the culture treated with or without various compounds for 3 days. Cells (except BT-20) were then recovered and treated with Trypan Blue and the number of viable cells counted. For BT-20 cells, a new rapid and simple method using Alamar Blue Assay was used, as described by S. A. Ahmed et al., J. Immunol. Meth., 170, 211 (1994). The symbol i on the Table indicates "not

HL-60 cells = test: cell growth inhibition, HL-60 promyelocytic leukemia; assay type: cell-based; settings: Homo sapiens, HL-60, 72 h; 3 days, Trypan Blue viable cell count
Experimental: as §2
(§3) As shown on Table 3, several compounds of formula (I) were tested for their ability to inhibit the growth of human cancer cells including promyelocytic leukemia HL-60 cells (S. J. Collins et al., Blood, 70, 1233 (1987)); acute lymphocytic leukemia A-1 cells, (S. Kamel-Reid et al., Leukemia, 6, 8 (1992)); human osteosarcoma MG-63, (A. Pirskanen et al., J. Bone and Mineral Res., 1635 (1994)); human breast carcinoma BT-20 (G. G. Castles et al., Cancer Res., 58, 5934 (1992)); and human colon adenocarcinoma HT-29 cells (R. Garcia et al., Oncogene, 6, 1983 (1991)).

p56^lyn = target: T2, p56^lyn (Homo sapiens, UniProt P07948); test: kinase assay, p56lyn; assay type: biochemical; settings: poly [Glu,Tyr](4:1) substrate
T2 construct: purchased Upstate Biotechnology Inc
Experimental: as §1

BT-20 = test: cell growth inhibition, BT-20 breast carcinoma (Alamar Blue); assay type: cell-based; settings: Homo sapiens, BT-20, 72 h, 3 days, Alamar Blue Assay
Experimental: as §2, §3

p56^lck = target: T3, p56^lck (Homo sapiens, UniProt P06239); test: kinase assay, p56lck; assay type: biochemical; settings: poly [Glu,Tyr](4:1) substrate
T3 construct: purchased Upstate Biotechnology Inc
Experimental: as §1

MG-63 = test: cell growth inhibition, MG-63 osteosarcoma; assay type: cell-based; settings: Homo sapiens, MG-63, 72 h; 3 days, Trypan Blue viable cell count
Experimental: as §2, §3

p55^fyn = test: kinase assay, p55fyn; assay type: biochemical; settings: poly [Glu,Tyr](4:1) substrate
Experimental: as §1

[1] = tested on: human cancer cells (HL-60, A-1, MG-63, BT-20, HT-29); test: inhibition of growth of human cancer cell lines, overall comparison; assay type: cell-based; settings: 9TA, 18TA compared with e.g. 9TO, 18TO
Experimental: as §2, §3

HT-29 cells = test: cell growth inhibition, HT-29 colon adenocarcinoma; assay type: cell-based; settings: Homo sapiens, HT-29, 72 h; 3 days, Trypan Blue viable cell count
Experimental: as §2, §3

Human fibroblasts cells = test: cell growth inhibition, human fibroblasts; assay type: cell-based; settings: for IC50: Homo sapiens, Fibroblast, 72 h, 3 days, Trypan Blue viable cell count
Experimental: as §2

melanoma = settings: 50 mg/day; Thornes et al. (1994); cited from earlier work

T1 sequence (P12931 whole entry): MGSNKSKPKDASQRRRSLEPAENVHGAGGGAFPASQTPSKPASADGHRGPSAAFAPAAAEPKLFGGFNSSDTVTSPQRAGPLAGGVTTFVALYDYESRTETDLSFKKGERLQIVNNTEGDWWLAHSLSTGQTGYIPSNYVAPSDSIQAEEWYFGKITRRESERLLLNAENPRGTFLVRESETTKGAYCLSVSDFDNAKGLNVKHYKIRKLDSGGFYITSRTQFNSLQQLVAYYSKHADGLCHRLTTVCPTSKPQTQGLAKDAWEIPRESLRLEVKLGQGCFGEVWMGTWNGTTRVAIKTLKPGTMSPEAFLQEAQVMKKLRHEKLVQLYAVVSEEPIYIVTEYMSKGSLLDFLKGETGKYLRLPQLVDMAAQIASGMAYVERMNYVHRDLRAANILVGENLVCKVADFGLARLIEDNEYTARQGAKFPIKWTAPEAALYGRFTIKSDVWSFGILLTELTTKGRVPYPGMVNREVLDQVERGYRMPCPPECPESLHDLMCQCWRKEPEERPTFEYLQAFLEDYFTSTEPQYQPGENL
T3 sequence (P06239 whole entry, species assumed): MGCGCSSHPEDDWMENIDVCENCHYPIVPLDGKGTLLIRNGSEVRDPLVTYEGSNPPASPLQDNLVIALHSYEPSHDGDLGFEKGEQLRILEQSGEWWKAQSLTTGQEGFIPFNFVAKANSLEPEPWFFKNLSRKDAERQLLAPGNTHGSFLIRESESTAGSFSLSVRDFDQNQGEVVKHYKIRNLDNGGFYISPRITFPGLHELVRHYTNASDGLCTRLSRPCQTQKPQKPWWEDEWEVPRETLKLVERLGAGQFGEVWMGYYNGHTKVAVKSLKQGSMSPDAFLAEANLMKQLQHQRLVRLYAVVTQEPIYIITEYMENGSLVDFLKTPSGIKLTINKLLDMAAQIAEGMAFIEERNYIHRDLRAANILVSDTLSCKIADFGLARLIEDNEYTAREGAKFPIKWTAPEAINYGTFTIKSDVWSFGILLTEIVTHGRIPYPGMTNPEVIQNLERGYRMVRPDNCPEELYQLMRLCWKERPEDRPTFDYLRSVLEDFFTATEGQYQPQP
T2 sequence (P07948 whole entry, species assumed): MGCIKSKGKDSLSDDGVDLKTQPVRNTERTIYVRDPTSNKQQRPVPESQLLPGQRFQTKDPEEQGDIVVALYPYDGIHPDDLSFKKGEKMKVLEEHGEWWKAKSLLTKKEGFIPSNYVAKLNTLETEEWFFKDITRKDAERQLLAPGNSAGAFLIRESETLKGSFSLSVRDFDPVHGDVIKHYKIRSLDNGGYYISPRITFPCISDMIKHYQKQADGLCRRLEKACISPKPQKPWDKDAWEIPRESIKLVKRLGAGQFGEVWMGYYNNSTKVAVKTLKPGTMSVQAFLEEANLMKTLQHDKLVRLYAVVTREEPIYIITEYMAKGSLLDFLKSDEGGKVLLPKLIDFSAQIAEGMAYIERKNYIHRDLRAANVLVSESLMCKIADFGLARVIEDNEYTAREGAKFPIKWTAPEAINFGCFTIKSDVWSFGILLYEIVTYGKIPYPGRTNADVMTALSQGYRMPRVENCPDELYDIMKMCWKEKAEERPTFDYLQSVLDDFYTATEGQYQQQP

Compound | IC50, p60^c-src (p60^c-src) [µg/mL] | IC50 (A-1 cells) [µg/mL] | IC50 (HL-60 cells) [µg/mL] | IC50 (BT-20) [µg/mL] | IC50, p55^fyn (p55^fyn) [µg/mL] | IC50, p56^lck (p56^lck) [µg/mL] | IC50 (HT-29 cells) [µg/mL] | also measured
N=c1oc2ccc(O)cc2cc1C(=O)Nc1cccc(O)c1 [Compound 7TA] | 1.3 (≈ 4.39 µM) | 4.5 (≈ 15.2 µM) | 6.5 (≈ 21.9 µM) |  |  |  |  | IC50 (p56^lyn): > 33.8 µM
N=c1oc2ccc(O)cc2cc1C(=O)Nc1ccc(O)cc1 [Compound 7T] | 3.2 (≈ 10.8 µM) | 3 (≈ 10.1 µM) | 4.2 (≈ 14.2 µM) | 4.5 (≈ 15.2 µM) |  |  |  | 
N=c1oc2cc(O)ccc2cc1C(=O)Nc1cccc(O)c1 [Compound 8TA] | 9 (≈ 30.4 µM) |  | 3.3 (≈ 11.1 µM) |  |  |  |  | IC50 (p56^lyn): > 33.8 µM
N=c1oc2cc(O)ccc2cc1C(=O)Nc1ccccc1O [Compound 8TO] | 0.6 (≈ 2.03 µM) |  | 8 (≈ 27 µM) |  |  |  |  | 
N=c1oc2cc(O)ccc2cc1C(=O)Nc1ccc(O)cc1 [Compound 8T] | 1.2 (≈ 4.05 µM) | 5 (≈ 16.9 µM) | 5 (≈ 16.9 µM) | 14 (≈ 47.3 µM) |  |  |  | 
N=c1oc2c(O)cccc2cc1C(=O)Nc1cccc(CO)c1 [Compound 9TABA] | 2.5 (≈ 8.06 µM) | 11 (≈ 35.4 µM) |  |  | 3 (≈ 9.67 µM) |  |  | potency relative to the hydroxylated parent compound (in words) (p60^c-src; p60^c-src): not more potent; IC50 (p56^lck): 64.5 µM; IC50 (MG-63): > 20 µg/mL
N=c1oc2c(O)cccc2cc1C(=O)Nc1cccc(O)c1 [Compound 9TA] | 0.035 (≈ 0.118 µM) | 6 (≈ 20.3 µM) | 10 (≈ 33.8 µM) |  |  | 0.62 (≈ 2.09 µM) | 20 (≈ 67.5 µM) | inhibition of p60^c-src kinase (in words) (p60^c-src): strong inhibitory effect; inhibition of cancer cell growth (in words) [1]: not as potent
N=c1oc2c(O)cccc2cc1C(=O)Nc1ccccc1CO [Compound 9TOBA] | 1.8 (≈ 5.8 µM) |  | 6 (≈ 19.3 µM) |  |  |  |  | potency relative to the hydroxylated parent compound (in words) (p60^c-src; p60^c-src): much more potent; IC50 (MG-63): 5 µg/mL (≈ 16.1 µM)
N=c1oc2c(O)cccc2cc1C(=O)Nc1ccccc1O [Compound 9TO] |  | 1.9 (≈ 6.41 µM) | 1.5 (≈ 5.06 µM) |  | > 20 | 1.2 (≈ 4.05 µM) | 4 (≈ 13.5 µM) | inhibition of p60^c-src kinase (in words) (p60^c-src): relatively weak activity
N=c1oc2c(O)cccc2cc1C(=O)Nc1ccc(O)cc1 [Compound 9T] |  |  | 2.5 (≈ 8.44 µM) | 7 (≈ 23.6 µM) | > 20 | 0.62 (≈ 2.09 µM) | 4 (≈ 13.5 µM) | IC50 (MG-63): 1.25 µg/mL (≈ 4.22 µM); IC50, p56^lyn (p56^lyn): 20 µg/mL (≈ 67.5 µM)
COc1ccc2cc(C(=O)Nc3ccc(O)cc3)c(=N)oc2c1 [Compound 15T] |  |  | 7.5 (≈ 24.2 µM) | > 20 |  |  |  | fold less active than 8T (p60^c-src; p60^c-src, versus 8T): 8 fold
COc1ccc2oc(=N)c(C(=O)Nc3ccc(O)cc3)cc2c1 [Compound 16T] | 12.5 (≈ 40.3 µM) |  | 5 (≈ 16.1 µM) | > 20 |  | 7.5 (≈ 24.2 µM) |  | fold less active than 7T (p60^c-src; p60^c-src, versus 7T): 4 fold
CC(=O)c1cccc(NC(=O)c2cc3ccc(O)c(O)c3oc2=N)c1 [Compound 18ACTA] | 3 (≈ 8.87 µM) | 15 (≈ 44.3 µM) |  |  |  |  |  | IC50, p56^lyn (p56^lyn): 10 µg/mL (≈ 29.6 µM)
N=c1oc2c(O)c(O)ccc2cc1C(=O)Nc1cccc(CO)c1 [Compound 18TABA] | 5 (≈ 15.3 µM) | 2.5 (≈ 7.66 µM) | 2.5 (≈ 7.66 µM) |  | > 20 |  |  | potency relative to the hydroxylated parent compound (in words) (p60^c-src; p60^c-src): not more potent; IC50, p56^lyn (p56^lyn): 20 µg/mL (≈ 61.3 µM)
N=c1oc2c(O)c(O)ccc2cc1C(=O)Nc1ccccc1CO [Compound 18TOBA] | 0.9 (≈ 2.76 µM) | > 20 | 6 (≈ 18.4 µM) |  | > 20 | 5 (≈ 15.3 µM) |  | potency relative to the hydroxylated parent compound (in words) (p60^c-src; p60^c-src): much more potent
O=c1ccc2ccccc2o1 [coumarin] |  |  |  |  |  |  |  | effect against melanoma (in words) (melanoma): effective against melanoma

Now from value to compound, other results behind:

IC50, p60^c-src (p60^c-src) [µg/mL] | IC50 (A-1 cells) [µg/mL] | IC50 (HL-60 cells) [µg/mL] | IC50 (BT-20) [µg/mL] | IC50, p55^fyn (p55^fyn) [µg/mL] | IC50, p56^lck (p56^lck) [µg/mL] | IC50 (HT-29 cells) [µg/mL] | Compound | also measured
 | 17 (≈ 57.4 µM) | > 20 |  | > 20 |  |  | N=c1oc2c(O)c(O)ccc2cc1C(=O)Nc1ccccc1 [Compound 18AN] | inhibition of p60^c-src kinase (in words) (p60^c-src): inactive; inhibition of cancer cell growth (in words) [1]: less active
0.225 (≈ 0.721 µM) | 20 (≈ 64 µM) | 9 (≈ 28.8 µM) |  | > 20 | 20 (≈ 64 µM) | > 20 | N=c1oc2c(O)c(O)ccc2cc1C(=O)Nc1cccc(O)c1 [Compound 18TA] | inhibition of p60^c-src kinase (in words) (p60^c-src): strong inhibitory effect; fold more potent than 18AN (p60^c-src; p60^c-src, versus 18AN): 88 fold; inhibition of cancer cell growth (in words) [1]: not as potent; IC50, p56^lyn (p56^lyn): 18 µg/mL (≈ 57.6 µM)
12 (≈ 38.4 µM) | 2 (≈ 6.4 µM) | 2 (≈ 6.4 µM) |  | > 20 | 20 (≈ 64 µM) | 15 (≈ 48 µM) | N=c1oc2c(O)c(O)ccc2cc1C(=O)Nc1ccccc1O [Compound 18TO] | inhibition of p60^c-src kinase (in words) (p60^c-src): relatively weak activity
3.6 (≈ 11.5 µM) | 8 (≈ 25.6 µM) | 3.5 (≈ 11.2 µM) | 7.2 (≈ 23.1 µM) | > 20 | 5 (≈ 16 µM) | 20 (≈ 64 µM) | N=c1oc2c(O)c(O)ccc2cc1C(=O)Nc1ccc(O)cc1 [Compound 18T] | 
1.25 (≈ 4 µM) | 15 (≈ 48 µM) | 2.5 (≈ 8.01 µM) | > 20 |  | 3.75 (≈ 12 µM) | 10 (≈ 32 µM) | N=c1oc2cc(O)cc(O)c2cc1C(=O)Nc1cccc(O)c1 [Compound 19TA] | IC50 (MG-63): 5 µg/mL (≈ 16 µM); IC50, p56^lyn (p56^lyn): 5 µg/mL (≈ 16 µM); inhibition of growth of human fibroblast cells (in words) (Human fibroblasts cells): not effective; IC50 (Human fibroblasts cells): > 20 µg/mL
2.1 (≈ 6.72 µM) | 2.5 (≈ 8.01 µM) | 5 (≈ 16 µM) | > 20 |  |  | 0.625 (≈ 2 µM) | N=c1oc2cc(O)cc(O)c2cc1C(=O)Nc1ccccc1O [Compound 19TO] | IC50 (MG-63): 2.5 µg/mL (≈ 8.01 µM); inhibition of growth of human fibroblast cells (in words) (Human fibroblasts cells): not effective; IC50 (Human fibroblasts cells): > 20 µg/mL
0.2 (≈ 0.64 µM) | 1 (≈ 3.2 µM) | 1 (≈ 3.2 µM) |  |  | 2 (≈ 6.4 µM) | 2.5 (≈ 8.01 µM) | N=c1oc2cc(O)cc(O)c2cc1C(=O)Nc1ccc(O)cc1 [Compound 19T] | fold more potent than the parent compound 25T (p60^c-src; p60^c-src, versus 25T): 200 fold; IC50, p56^lyn (p56^lyn): 5 µg/mL (≈ 16 µM); inhibition of growth of human fibroblast cells (in words) (Human fibroblasts cells): not effective; IC50 (Human fibroblasts cells): > 20 µg/mL
 |  | > 10 | 10 (≈ 35.7 µM) |  |  |  | N=c1oc2ccccc2cc1C(=O)Nc1ccc(O)cc1 [Compound 25T, 3-(N-4-hydroxyphenyl)carbamoyl-2-iminochromene] | inhibition of p60^c-src kinase (in words) (p60^c-src): poorly inhibits; also recorded: inactive; inhibition of cancer cell growth (in words) [1]: less active
10 (≈ 35.7 µM) |  |  |  |  |  |  | N=c1oc2ccccc2cc1C(=O)Nc1cccc(O)c1 [Compound 25TA] | 
1.3 (≈ 4.19 µM) | 12 (≈ 38.7 µM) |  |  |  |  |  | COc1cccc2cc(C(=O)Nc3cccc(O)c3)c(=N)oc12 [Compound 32TA] | 
